Test results as given in BindingDB's records for doi:10.7270/Q20V8B7J (Nmmlsc, 2009).

What follows are compounds tested against Ras-related C3 botulinum toxin substrate 1 (Mus musculus, UniProt P63001) (assay: activated mutant Rac1 GTP binding inhibitors, SAR follow-up, biochemical, additional analogs, multiplex bead flow cytometry (AID 2039)).

First: O=C1Nc2c(Br)cccc2C1=C1Nc2ccccc2C1=O
Second: O=C1Nc2ccc(Br)cc2C1=C1Nc2ccccc2C1=O
The Ki of the first is 2.3-fold higher: 2510 nM for the first, 1110 nM for the second. The second binds more tightly here.

Going from `O=C1NC(=O)/C(=C2/C(=O)Nc3ccccc32)N1` to `O=C1NC(=S)N/C1=C1\C(=O)Nc2ccccc21` [(3Z)-3-(5-oxo-2-sulfanylideneimidazolidin-4-ylidene)-1H-indol-2-one], the Ki falls from 1060 nM to 640 nM (1.7-fold). The second binds more tightly here.

`O=C1N=c2ccc(Br)cc2=C1c1[nH]c2ccccc2c1NO` [5-bromanyl-3-[3-(oxidanylamino)-1H-indol-2-yl]indol-2-one] and `O=C1N=c2c(F)cccc2=C1c1[nH]c2ccccc2c1NO` [7-fluoro-3-[3-(hydroxyamino)-1H-indol-2-yl]-2-indolone] are within 1.5-fold of each other in Ki: 2980 nM for the first, 2870 nM for the second.
